{"source": "patent US6359015B1", "about": "“Method for antagonizing inhibition effects of alcohol on cell adhesion” (The United States of America as represented by the …, priority 2000, dated 2002)", "key": {"[1]": {"tested_on": "BMP-7 treated NG108-15 neuroblastoma×glioma cells", "assay": "Cell-cell adhesion (short-term aggregation) assay in BMP-7 treated NG108-15 cells", "assay_type": "cell-based, rat and mouse", "conditions": "both cellular systems (NG108-15 + BMP-7 and L1-expressing NIH/3T3)", "experimental": "NIH/3T3 cells were cultured in Dulbecco's minimum Eagle medium (DMEM) (Life Technologies, Gaithersburg, Md.) supplemented with 10% normal calf serum (Intergen, Purchase, N.Y.) and 400 μg/ml G418 (Life Technologies). NG108-15 neuroblastoma×glioma cells (passages 21 to 30) were plated in serum-free, defined medium (Reference 16). At the start of the morphogenetic and cell adhesion assays, serum-free medium containing BMP-7 (Creative BioMolecules, Hopkinton, Ma.) (1-40 ng/ml, final) was added daily to the NG108-15 cells. Both cell lines were cultured at 37° C., in an atmosphere of 90% air and 10% CO2. Three NIH/3T3 subclones were utilized in these studies: 2B2-L1, 2A2-L1 and Vec-1A5. The 2B2-L1 and 2A2-L1 cell lines are subclones derived from a stable transfection of NIH/3T3 cells with the human L1 cDNA, and Vec-1A5 is a subclone from a transfection with the empty expression vector (Reference 12).\nCells were cultured and cell adhesion assays were performed in the absence and presence of the alcohols listed below in Table 1. The concentrations of alcohols used in the adhesion assays were calculated to produce membrane concentrations equivalent to 50-100 mM ethanol. Membrane/buffer partition coefficients (Pm/b) were obtained or were calculated from published octanol/water partition coefficients (Reference 15). Molar volumes were obtained from published sources (References 15) or were calculated from molecular weights and densities at 20° C.\nCell-cell adhesion was measured using a modified short-term aggregation assay of sub-confluent cells (Reference 12). Cells were detached by gentle agitation, mechanically dissociated to obtain a single-cell suspension, and diluted in PBS supplemented with 0.1 mg/ml DNase to 350,000 cells/ml for the NIH/3T3 cells, and 250,000 cells/ml for the NG108-15 cells. One ml of the cell suspension was added per well (4.5 cm^2) of a 12-well plate. After addition of the alcohols, the cells were gently mixed and mechanically shaken for 30 minutes at room temperature on an orbital shaker set at 60 to 80 rpm. Cells were viewed at a final magnification of 200×, and each well was scored for single and adherent cells in five or six microscopic fields of view. We counted approximately 100 cells per field of view and 600 cells per well. The percentage of adherent cells was calculated for each microscopic field of view and averaged. To calculate the magnitude of ethanol inhibition, we subtracted the values for cell adhesion with the Vec-1A5 cells from those of the 2B2-L1 or 2A2-L1 cell lines. Similarly, the values for cell adhesion in NG108-15 cells cultured in serum-free medium were subtracted from those of NG108-15 cells treated with BMP-7.\nWe tested the effects of a series of alcohols on cell-cell adhesion in two well-characterized model systems. NG108-15 cells were incubated for 48 hours in a serum-free medium supplemented with 10-20 ng/ml BMP-7 to induce L1 and N-CAM gene expression (Reference 10). Parallel experiments were performed using two ethanol-sensitive NIH/3T3 cell lines transfected with human L1 (2B2-L1 and 2A2-L1) (Reference 12) and a NIH/3T3 cell line transfected with the empty expression vector (1A5-V)."}, "NG108-15 cells": {"tested_on": "NG108-15 cells", "assay": "BMP-7 morphogenesis (cell clusters) in NG108-15 cells", "assay_type": "cell-based, rat and mouse", "conditions": "50 mM ethanol, 3 days, 0.1-40 ng/ml BMP-7", "experimental": "NG108-15 cells were plated from suspensions of single cells at a density of 50,000 cells/well in poly-D-lysine-coated, 6-well plated containing serum-free medium in the absence or presence of BMP-7, as described (References 17-18). […] Control cultures were treated similarly. The media for all cells was replaced daily following the addition of ethanol. […] A cell cluster was defined as a group of three or more cells that adhered to each other along at least one quarter of their cell bodies (Reference 19). The percentage of cells in clusters was calculated by dividing the number of cells present in clusters by the total number of cells (150 to 200) in each field. Values obtained for each field of a treatment group were then averaged.\nTreatment with BMP-7 for 48 hours causes NG108-15 cells to grow in clusters of adherent cells (BMP-7 morphogenesis), rather than as predominantly single cells.\nThe percentage of cells in clusters of three or more cells was scored from two separate fields viewed under 200×magnification."}, "[2]": {"conditions": "published or calculated from molecular weight and density at 20° C.; cited from earlier work"}, "[3]": {"tested_on": "Myeloma cells transfected with L1", "conditions": "References 14 and 21; cited from earlier work"}, "[4]": {"tested_on": "insect SF9 cells transfected with L1", "conditions": "References 14 and 21; cited from earlier work"}}}
{"smiles": "CCO", "note": "[ethanol]", "values": [{"measurement": "Inhibition of cell-cell adhesion (in words)", "setting": "[1]", "result": "maximally inhibited"}, {"measurement": "Inhibition of BMP-7 morphogenesis (percentage of cell clusters)", "setting": "NG108-15 cells", "result": "inhibited significantly"}, {"measurement": "Vm molar volume", "setting": "[2]", "result": 58, "unit": "mL/mol"}, {"measurement": "Sensitivity of L1-transfected myeloma cells to ethanol", "setting": "[3]", "result": "insensitive"}, {"measurement": "Sensitivity of L1-transfected insect SF9 cells to ethanol", "setting": "[4]", "result": "insensitive"}]}
